Test results from US6670485B2, “Prostanoic acid derivatives as agents for lowering intraocular pressure” (Allergan, Inc., priority 2001, dated 2003).

How the values were obtained:
[1] = system: Dog intraocular pressure; experiment: Intraocular pressure in dogs by applanation pneumatonometry; format: in vivo; settings: 25 μl to the ocular surface, contralateral eye vehicle, IOP before drug administration and at 6 hours thereafter
Procedure: The effects of the compounds of this invention on intraocular pressure are also measured. The compounds are prepared at the said concentrations in a vehicle comprising 0.1% polysorbate 80 and 10 mM TRIS base. Dogs are treated by administering 25 μl to the ocular surface, the contralateral eye received vehicle as a control. Intraocular pressure is measured by applanation pneumatonometry. Dog intraocular pressure is measured immediately before drug administration and at 6 hours thereafter.

[2] = system: intraocular pressure; experiment: Intraocular pressure in glaucomatous cynomolgus monkeys; format: in vivo; settings: glaucomatous cynomonlgus monkeys

C=CCOC(=O)CCC/C=C\C[C@H]1C(=O)C[C@@H](O)[C@@H]1/C=C/[C@@H](O)CCc1sc2ccccc2c1Cl [6(a), (Z)-7-{(1R,2R,3R,5S)-2-[(E)-(S)-5-(3-Chlorobenzo[b]thiophen-2-yl)-3-hydroxypent-1-enyl]-3-hydroxy-5-oxocyclopentyl}hept-5-enoic acid allyl ester]
ocular hypotensive effect [1]: pronounced ocular hypotensive effect

O=C(O)CCC/C=C\C[C@H]1C(=O)C[C@@H](O)[C@@H]1/C=C/[C@@H](O)CCc1sc2ccccc2c1Cl [7(a), (Z)-7-{(1R,2R,3R,5S)-2-[(E)-(S)-5-(3-Chlorobenzo[b]thiophen-2-yl)-3-hydroxypent-1-enyl]-3-hydroxy-5-oxocyclopentyl}hept-5-enoic acid]
ocular hypotensive effect [2]: pronounced ocular hypotensive effect
